# Laboratory results reported in patent US9005575B2, “Arg-Gly-Asp-conjugated alpha-melanocyte stimulating hormone hybrid peptide for use in diagnosing and treating melanoma, including metastatic melanoma and methods related to same” (STC.UNM, priority 2009, dated 2015).
# Like-named read-outs stand apart in the source and are kept apart here. Positions of bridges follow the written chain, without caps; N, C: chain ends. Non-standard residues stand in square brackets, D forms with d. Residues, ends and D or L forms follow the SMILES beside them.
# Assay: Biodistribution in B16/F1 melanoma-bearing C57 mice
# Type: in vivo
# Details: female, C57, mouse, iv, total radioactivity; for tissue uptake at 2 h / tissue uptake dose at 2 h: 2 h post-injection
# Experimental: All the animal studies were conducted in compliance with Institutional Animal Care and Use Committee approval. The pharmacokinetics of ^99mTc-RGD-Lys-(Arg^11)CCMSH was determined in B16/F1 melanoma-bearing C57 female mice (Harlan, Indianapolis, Ind.). C57 mice were subcutaneously inoculated on the right flank with 1×10^6 B16/F1 cells. The weight of tumors reached approximately 0.2 g 10 days post cell inoculation. Each melanoma-bearing mouse was injected with 0.037 MBq of ^99mTc-RGD-Lys-(Arg^11)CCMSH via the tail vein. Groups of 5 mice were sacrificed at 0.5, 2, 4 and 24 h post-injection, and tumors and organs of interest were harvested, weighed and counted. Blood values were taken as 6.5% of the whole-body weight. The MC1 receptor specificity of the tumor uptake was determined at 2 h post-injection by co-injecting ^99mTc-RGD-Lys-(Arg^11)CCMSH with 10 μg (6.1 nmol) of unlabeled NDP-MSH, a linear α-MSH peptide analogue with picomolar affinity for the MC1 receptors present on murine melanoma cells. The co-injection of 3.5 μg (6.1 nmol) of RGD peptide was performed to determine the αvβ3 integrin specificity of the tumor uptake 2 h post-injection. Statistical analysis was performed using the Student's t-test for unpaired data.
# All the animal studies were conducted in compliance with Institutional Animal Care and Use Committee approval. The pharmacokinetics of ^99mTc-RGD-Arg-(Arg^11)CCMSH was determined in B16/F1 melanoma-bearing C57 female mice (Harlan, Indianapolis, Ind.). C57 mice were subcutaneously inoculated on the right flank with 1×10^6 B16/F1 cells. The weight of tumors reached approximately 0.2 g 10 days post cell inoculation. Each melanoma-bearing mouse was injected with 0.037 MBq of ^99mTc-RGD-Arg-(Arg^11)CCMSH via the tail vein. Groups of 5 mice were sacrificed at 0.5, 2, 4 and 24 h post-injection, and tumors and organs of interest were harvested, weighed and counted. Blood values were taken as 6.5% of the whole-body weight. The MC1 receptor specificity of the tumor uptake was determined at 2 h post-injection by co-injecting ^99mTc-RGD-Arg-(Arg^11)CCMSH with 10 μg (6.1 nmol) of unlabeled NDP-MSH. The co-injection of 3.5 μg (6.1 nmol) of RGD peptide was performed to determine the αvβ3 integrin specificity of the tumor uptake at 2 h post-injection.
smiles,measurement,setting,value
"CC(C)[C@H](NC(=O)[C@@H]1CCCN1C(=O)[C@H](CCCNC(=N)N)NC(=O)[C@H](CS)NC(=O)[C@H](Cc1c[nH]c2ccccc12)NC(=O)[C@H](CCCNC(=N)N)NC(=O)[C@@H](Cc1ccccc1)NC(=O)[C@H](Cc1c[nH]cn1)NC(=O)[C@H](CCC(=O)O)NC(=O)[C@H](CS)NC(=O)[C@H](CS)NC(=O)[C@H](CCCNC(=N)N)NC(=O)[C@@H]1CC(=O)N[C@@H](CCCNC(=N)N)C(=O)NCC(=O)N[C@@H](CC(=O)O)C(=O)N[C@H](Cc2ccc(O)cc2)C(=O)N1)C(N)=O [^99mTc-RGD-Arg-(Arg^11)CCMSH, metal not drawn] (RGD[dY]DRCCEH[dF]RWCRPV-NH2; lactam N-5)",tissue uptake at 0.5 h,"blood, 0.037 MBq, 0.5 h post-injection, read-out: Blood, Percentage Injected Dose/gram",3.64 ± 0.69 %ID/g
same,tissue uptake at 2 h,"blood, 0.037 MBq, read-out: Blood, Percentage Injected Dose/gram",0.55 ± 0.47 %ID/g
same,tissue uptake at 4 h,"blood, 0.037 MBq, 4 h post-injection, read-out: Blood, Percentage Injected Dose/gram",0.71 ± 0.41 %ID/g
same,tissue uptake at 24 h,"blood, 0.037 MBq, 24 h post-injection, read-out: Blood, Percentage Injected Dose/gram",0.24 ± 0.14 %ID/g
same,tissue uptake at 2 h,"blood, NDP blockade (10 μg NDP-MSH co-injected), read-out: Blood, Percentage Injected Dose/gram",0.47 ± 0.29 %ID/g
same,tissue uptake at 2 h,"blood, RGD blockade (3.5 μg RGD co-injected), read-out: Blood, Percentage Injected Dose/gram",0.04 ± 0.01 %ID/g
same,tissue uptake at 0.5 h,"bone, 0.037 MBq, 0.5 h post-injection, read-out: Bone, Percentage Injected Dose/gram",2.01 ± 0.19 %ID/g
same,tissue uptake at 2 h,"bone, 0.037 MBq, read-out: Bone, Percentage Injected Dose/gram",0.57 ± 0.15 %ID/g
same,tissue uptake at 4 h,"bone, 0.037 MBq, 4 h post-injection, read-out: Bone, Percentage Injected Dose/gram",0.97 ± 0.22 %ID/g
same,tissue uptake at 24 h,"bone, 0.037 MBq, 24 h post-injection, read-out: Bone, Percentage Injected Dose/gram",0.9 ± 0.39 %ID/g
same,tissue uptake at 2 h,"bone, NDP blockade (10 μg NDP-MSH co-injected), read-out: Bone, Percentage Injected Dose/gram",0.98 ± 0.39 %ID/g
same,tissue uptake at 2 h,"bone, RGD blockade (3.5 μg RGD co-injected), read-out: Bone, Percentage Injected Dose/gram",0.52 ± 0.42 %ID/g
same,tissue uptake at 0.5 h,"brain, 0.037 MBq, 0.5 h post-injection, read-out: Brain, Percentage Injected Dose/gram",0.16 ± 0.02 %ID/g
same,tissue uptake at 2 h,"brain, 0.037 MBq, read-out: Brain, Percentage Injected Dose/gram",0.06 ± 0.02 %ID/g
same,tissue uptake at 4 h,"brain, 0.037 MBq, 4 h post-injection, read-out: Brain, Percentage Injected Dose/gram",0.04 ± 0.03 %ID/g
same,tissue uptake at 24 h,"brain, 0.037 MBq, 24 h post-injection, read-out: Brain, Percentage Injected Dose/gram",0.06 ± 0.02 %ID/g
same,tissue uptake at 2 h,"brain, NDP blockade (10 μg NDP-MSH co-injected), read-out: Brain, Percentage Injected Dose/gram",0.06 ± 0.01 %ID/g
same,tissue uptake at 2 h,"brain, RGD blockade (3.5 μg RGD co-injected), read-out: Brain, Percentage Injected Dose/gram",0.04 ± 0.01 %ID/g
same,tissue uptake at 0.5 h,"heart, 0.037 MBq, 0.5 h post-injection, read-out: Heart, Percentage Injected Dose/gram",2.36 ± 0.37 %ID/g
same,tissue uptake at 2 h,"heart, 0.037 MBq, read-out: Heart, Percentage Injected Dose/gram",0.73 ± 0.27 %ID/g
same,tissue uptake at 4 h,"heart, 0.037 MBq, 4 h post-injection, read-out: Heart, Percentage Injected Dose/gram",0.53 ± 0.19 %ID/g
same,tissue uptake at 24 h,"heart, 0.037 MBq, 24 h post-injection, read-out: Heart, Percentage Injected Dose/gram",0.34 ± 0.07 %ID/g
same,tissue uptake at 2 h,"heart, with RGD peptide, 3.5 μg (6.1 nmol) co-injected, RGD blockade (3.5 μg RGD co-injected), read-out: Heart, Percentage Injected Dose/gram",0.55 ± 0.22 %ID/g
same,tissue uptake at 2 h,"heart, with unlabeled NDP-MSH, 10 μg (6.1 nmol) co-injected, NDP blockade (10 μg NDP-MSH co-injected), read-out: Heart, Percentage Injected Dose/gram",0.61 ± 0.21 %ID/g
same,tissue uptake dose at 0.5 h,"intestines, 0.037 MBq, 0.5 h post-injection, read-out: Intestines, Percentage Injected Dose",3.19 ± 0.22 %ID
same,tissue uptake dose at 2 h,"intestines, 0.037 MBq, read-out: Intestines, Percentage Injected Dose",2.57 ± 0.58 %ID
same,tissue uptake dose at 4 h,"intestines, 0.037 MBq, 4 h post-injection, read-out: Intestines, Percentage Injected Dose",2.62 ± 0.57 %ID
same,tissue uptake dose at 24 h,"intestines, 0.037 MBq, 24 h post-injection, read-out: Intestines, Percentage Injected Dose",1.01 ± 0.11 %ID
same,tissue uptake dose at 2 h,"intestines, NDP blockade (10 μg NDP-MSH co-injected), read-out: Intestines, Percentage Injected Dose",2.34 ± 0.52 %ID
same,tissue uptake dose at 2 h,"intestines, RGD blockade (3.5 μg RGD co-injected), read-out: Intestines, Percentage Injected Dose",1.79 ± 0.58 %ID
same,tissue uptake at 0.5 h,"kidneys, 0.037 MBq, 0.5 h post-injection, read-out: Kidneys, Percentage Injected Dose/gram",37.2 ± 4.72 %ID/g
same,tissue uptake at 2 h,"kidneys, 0.037 MBq, read-out: Kidneys, Percentage Injected Dose/gram",43 ± 8.14 %ID/g
same,tissue uptake at 4 h,"kidneys, 0.037 MBq, 4 h post-injection, read-out: Kidneys, Percentage Injected Dose/gram",36.6 ± 11.7 %ID/g
same,tissue uptake at 24 h,"kidneys, 0.037 MBq, 24 h post-injection, read-out: Kidneys, Percentage Injected Dose/gram",16.2 ± 4.01 %ID/g
same,tissue uptake at 2 h,"kidneys, NDP blockade (10 μg NDP-MSH co-injected), read-out: Kidneys, Percentage Injected Dose/gram",34.8 ± 8.46 %ID/g
same,tissue uptake at 2 h,"kidneys, RGD blockade (3.5 μg RGD co-injected), read-out: Kidneys, Percentage Injected Dose/gram",38.5 ± 7.45 %ID/g
same,tissue uptake at 0.5 h,"liver, 0.037 MBq, 0.5 h post-injection, read-out: Liver, Percentage Injected Dose/gram",4.21 ± 1.04 %ID/g
same,tissue uptake at 2 h,"liver, 0.037 MBq, read-out: Liver, Percentage Injected Dose/gram",3.58 ± 1.08 %ID/g
same,tissue uptake at 4 h,"liver, 0.037 MBq, 4 h post-injection, read-out: Liver, Percentage Injected Dose/gram",4.93 ± 0.38 %ID/g
same,tissue uptake at 24 h,"liver, 0.037 MBq, 24 h post-injection, read-out: Liver, Percentage Injected Dose/gram",1.89 ± 0.36 %ID/g
same,tissue uptake at 2 h,"liver, NDP blockade (10 μg NDP-MSH co-injected), read-out: Liver, Percentage Injected Dose/gram",2.87 ± 0.34 %ID/g
same,tissue uptake at 2 h,"liver, RGD blockade (3.5 μg RGD co-injected), read-out: Liver, Percentage Injected Dose/gram",2.3 ± 0.22 %ID/g
same,tissue uptake at 0.5 h,"lung, 0.037 MBq, 0.5 h post-injection, read-out: Lung, Percentage Injected Dose/gram",7.55 ± 1.29 %ID/g
same,tissue uptake at 2 h,"lung, 0.037 MBq, read-out: Lung, Percentage Injected Dose/gram",2.05 ± 0.52 %ID/g
same,tissue uptake at 4 h,"lung, 0.037 MBq, 4 h post-injection, read-out: Lung, Percentage Injected Dose/gram",1.01 ± 0.41 %ID/g
same,tissue uptake at 24 h,"lung, 0.037 MBq, 24 h post-injection, read-out: Lung, Percentage Injected Dose/gram",0.76 ± 0.14 %ID/g
same,tissue uptake at 2 h,"lung, NDP blockade (10 μg NDP-MSH co-injected), read-out: Lung, Percentage Injected Dose/gram",1.42 ± 0.31 %ID/g
same,tissue uptake at 2 h,"lung, RGD blockade (3.5 μg RGD co-injected), read-out: Lung, Percentage Injected Dose/gram",1.21 ± 0.5 %ID/g
same,tissue uptake at 0.5 h,"muscle, 0.037 MBq, 0.5 h post-injection, read-out: Muscle, Percentage Injected Dose/gram",1.79 ± 1.14 %ID/g
same,tissue uptake at 2 h,"muscle, 0.037 MBq, read-out: Muscle, Percentage Injected Dose/gram",0.21 ± 0.12 %ID/g
same,tissue uptake at 4 h,"muscle, 0.037 MBq, 4 h post-injection, read-out: Muscle, Percentage Injected Dose/gram",0.32 ± 0.25 %ID/g
same,tissue uptake at 24 h,"muscle, 0.037 MBq, 24 h post-injection, read-out: Muscle, Percentage Injected Dose/gram",0.25 ± 0.05 %ID/g
same,tissue uptake at 2 h,"muscle, NDP blockade (10 μg NDP-MSH co-injected), read-out: Muscle, Percentage Injected Dose/gram",0.5 ± 0.12 %ID/g
same,tissue uptake at 2 h,"muscle, RGD blockade (3.5 μg RGD co-injected), read-out: Muscle, Percentage Injected Dose/gram",0.28 ± 0.2 %ID/g
same,tissue uptake,"normal organs except kidneys, 0.037 MBq, after 2 h post-injection, read-out: Normal organ uptakes except for the kidneys",< 3.6 %ID/g
same,tissue uptake at 0.5 h,"pancreas, 0.037 MBq, 0.5 h post-injection, read-out: Pancreas, Percentage Injected Dose/gram",1.02 ± 0.36 %ID/g
same,tissue uptake at 2 h,"pancreas, 0.037 MBq, read-out: Pancreas, Percentage Injected Dose/gram",0.36 ± 0.2 %ID/g
same,tissue uptake at 4 h,"pancreas, 0.037 MBq, 4 h post-injection, read-out: Pancreas, Percentage Injected Dose/gram",0.37 ± 0.12 %ID/g
same,tissue uptake at 24 h,"pancreas, 0.037 MBq, 24 h post-injection, read-out: Pancreas, Percentage Injected Dose/gram",0.19 ± 0.09 %ID/g
same,tissue uptake at 2 h,"pancreas, NDP blockade (10 μg NDP-MSH co-injected), read-out: Pancreas, Percentage Injected Dose/gram",0.37 ± 0.22 %ID/g
same,tissue uptake at 2 h,"pancreas, RGD blockade (3.5 μg RGD co-injected), read-out: Pancreas, Percentage Injected Dose/gram",0.32 ± 0.17 %ID/g
same,tissue uptake at 0.5 h,"skin, 0.037 MBq, 0.5 h post-injection, read-out: Skin, Percentage Injected Dose/gram",4.55 ± 1.01 %ID/g
